This note sets out measurements from patent publication US9670229B2, “5-HT3 receptor antagonists” (Takeda Pharmaceutical Company Limited, priority 2012, dated 2017).

Sequence of 5-HT3a receptor expressed in HEK-293T cells (P46098 24-478): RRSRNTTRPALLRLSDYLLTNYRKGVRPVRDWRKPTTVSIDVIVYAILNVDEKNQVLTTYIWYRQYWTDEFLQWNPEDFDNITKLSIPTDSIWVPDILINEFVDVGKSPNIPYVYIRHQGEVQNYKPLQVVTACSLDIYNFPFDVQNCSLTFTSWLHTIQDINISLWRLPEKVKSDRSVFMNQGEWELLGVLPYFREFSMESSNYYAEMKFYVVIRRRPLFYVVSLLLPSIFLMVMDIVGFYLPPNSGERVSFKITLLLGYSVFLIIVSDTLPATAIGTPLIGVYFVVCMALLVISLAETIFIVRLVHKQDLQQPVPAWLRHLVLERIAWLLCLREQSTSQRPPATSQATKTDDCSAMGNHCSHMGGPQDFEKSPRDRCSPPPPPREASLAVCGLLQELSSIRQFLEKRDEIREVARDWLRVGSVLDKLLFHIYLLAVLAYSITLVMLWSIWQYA

The target of the assay is 5-HT3a receptor expressed in HEK-293T cells (Homo sapiens (Human), UniProt P46098). As to the kind of experiment: Inhibition of Ca flux activity of 5-HT3 in vitro assay. Type of assay: cell-based. As to conditions: approximate IC50; calcium flux, 5HT 216 nM, HEK-293T cells transfected with 5-HT3a. The procedure:
The 5-HT3 antagonist activity of the compounds of the invention was determined by measuring the ability of the compounds to inhibit the calcium flux activity of […] receptor expressed in HEK-293T cells. HEK-293T cells were transfected with the 5-HT3a expression construct using Xtreme Gene 9 (Roche) in 150 mm tissue culture treated plates and incubated for 24 hours at 37° C. Cells were then split and plated at a density of 60K cells/well in poly-lysine coated, black 96-well plates with clear bottoms (BD BioSciences) and incubated overnight at 37° C. Growth media was removed and cells loaded with 200 uL calcium indicator dye in HBSS containing 20 mM HEPES (Calcium 5 Assay kit, Molecular Devices) and incubated at 37° C. for 1 hour. While cells were incubating, the 10× antagonist and agonist/antagonist addition plates were made. For 10× antagonist plate: half log serial dilutions (final concentrations range from 10^−7 through 10^−10 with the bottom well a negative, no ligand control) were made from test compounds in DMSO at a 1000× concentration and then diluted to 10× in HBSS/20 mM HEPES. For addition plate: 5HT was diluted to 100× in HBSS/20 mM HEPES (final concentration in the assay-216 nM) and 15 uL was added to each well of the addition plate, 15 uL of 10× compound was also added to the addition plate, and finally 120 uL of HBSS/20 mM HEPES (for a total of 150 uL). Cells were then removed from the incubator and equilibrated to room temperature for 10 minutes, then 22.5 uL of 10× test compounds were added in triplicate to the plates and incubated at room temperature for 10 minutes (Tropisetron was used as a positive control in every assay). Test plate and addition plate were loaded into the FlexStation III (Molecular Devices), and using the fluidics, 22.5 uL compound additions were made (at t=˜17 seconds), and fluorescence was measured for 90 seconds, reading every 2.2 seconds. Data sets were analyzed as max minus min using Software Max Pro (Molecular Devices). IC50 curves were generated using non-linear regression in GraphPad Prism.
(In general: A change in cytosolic calcium serves as a functional read-out for many receptors and channels.)
For orientation: IC50 means the point on the concentration scale where inhibition reaches its midpoint. For `CN1[C@@H]2COC[C@H]1C[C@@H](OC(=O)c1cn(-c3cn[nH]c3)c3ccccc13)C2` [Compound 29, (1R,5S,7S)-9-methyl-3-oxa-9-azabicyclo [3.3.1]nonan-7-yl 1-(1H-pyrazol-4-yl)-1H-indole-3-carboxylate], the concentration for half-maximal inhibition (IC50) was 0.462 nM.
Regarding `CN1[C@@H]2COC[C@H]1C[C@@H](NC(=O)c1cn(-c3ccccn3)c3ccccc13)C2` [Compound 6, N-((1R,5S,7S)-9-methyl-d3-3-oxa-9-azabicyclo[3.3.1]nonan-7-yl)-1-(pyridin-2-yl)-1H-indole-3-carboxamide, 2,2,2-trifluoroacetate], the IC50 turned out to be 1.1 nM.
Take `CN1[C@@H]2COC[C@H]1C[C@@H](OC(=O)c1cn(-c3cnn(C)c3)c3ccccc13)C2` [Compound 26, (1R,5S,7S)-9-methyl-3-oxa-9-azabicyclo[3.3.1]nonan-7-yl 1-(1-methyl-1H-pyrazol-4-yl)-1H-indole-3-carboxylate]: the concentration for half-maximal inhibition (IC50) was determined as 1.2 nM.
To `CN1[C@@H]2COC[C@H]1C[C@@H](NC(=O)c1cn(-c3ccc[n+]([O-])c3)c3ccccc13)C2` [Compound 32, 3-(3-(((1R,5S,7S)-9-methyl-3-oxa-9-azabicyclo[3.3.1]nonan-7-yl)carbamoyl)-1H-indol-1-yl)pyridine 1-oxide] belongs 1.36 nM; to “(1R,5S,7S)-9-methyl-3-oxa-9-azabicyclo [3.3.1]nonan-7-yl 1-(1-(2-fluoroethyl)- 1H-pyrazol-4-yl)-1H-indole-3-carboxylate, 2,2,2-trifluoroacetic acid salt [Compound 18]”, 2.01 nM.
